# Measured values as given in US8841309B2, “Substituted pyrazines and their use in the treatment of disease” (Boehringer Ingelheim International GmbH, priority 2012, dated 2014).
# Biological target: T1, ENaC (Mus musculus, UniProt Q61180+Q9WU38+Q9WU39)
# T1 construct: Mouse kidney M-1 cells were cultivated in DMEM containing 5% FCS and 5 μM dexamethasone; endogenous in cells; host or cells: mouse kidney M-1 cells
# T1 sequence (Q61180 1-699): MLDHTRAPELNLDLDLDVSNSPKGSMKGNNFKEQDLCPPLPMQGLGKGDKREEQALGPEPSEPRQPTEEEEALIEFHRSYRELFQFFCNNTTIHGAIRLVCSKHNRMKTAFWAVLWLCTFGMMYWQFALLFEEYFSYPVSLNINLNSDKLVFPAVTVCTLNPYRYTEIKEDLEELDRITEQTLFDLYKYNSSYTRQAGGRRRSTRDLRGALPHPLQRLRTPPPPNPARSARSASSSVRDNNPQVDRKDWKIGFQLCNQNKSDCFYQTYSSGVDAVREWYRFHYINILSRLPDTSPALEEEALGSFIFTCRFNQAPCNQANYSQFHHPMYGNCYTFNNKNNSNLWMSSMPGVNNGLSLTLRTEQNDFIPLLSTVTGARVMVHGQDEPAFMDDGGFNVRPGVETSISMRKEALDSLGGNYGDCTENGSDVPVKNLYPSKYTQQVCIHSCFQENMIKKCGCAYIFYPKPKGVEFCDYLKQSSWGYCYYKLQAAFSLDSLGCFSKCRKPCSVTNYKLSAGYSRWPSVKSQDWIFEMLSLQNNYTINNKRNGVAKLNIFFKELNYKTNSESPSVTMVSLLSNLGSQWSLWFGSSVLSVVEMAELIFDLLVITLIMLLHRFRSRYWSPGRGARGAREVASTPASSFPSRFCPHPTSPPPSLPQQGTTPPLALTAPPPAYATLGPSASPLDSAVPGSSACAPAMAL
# T1 sequence (Q9WU38 1-638): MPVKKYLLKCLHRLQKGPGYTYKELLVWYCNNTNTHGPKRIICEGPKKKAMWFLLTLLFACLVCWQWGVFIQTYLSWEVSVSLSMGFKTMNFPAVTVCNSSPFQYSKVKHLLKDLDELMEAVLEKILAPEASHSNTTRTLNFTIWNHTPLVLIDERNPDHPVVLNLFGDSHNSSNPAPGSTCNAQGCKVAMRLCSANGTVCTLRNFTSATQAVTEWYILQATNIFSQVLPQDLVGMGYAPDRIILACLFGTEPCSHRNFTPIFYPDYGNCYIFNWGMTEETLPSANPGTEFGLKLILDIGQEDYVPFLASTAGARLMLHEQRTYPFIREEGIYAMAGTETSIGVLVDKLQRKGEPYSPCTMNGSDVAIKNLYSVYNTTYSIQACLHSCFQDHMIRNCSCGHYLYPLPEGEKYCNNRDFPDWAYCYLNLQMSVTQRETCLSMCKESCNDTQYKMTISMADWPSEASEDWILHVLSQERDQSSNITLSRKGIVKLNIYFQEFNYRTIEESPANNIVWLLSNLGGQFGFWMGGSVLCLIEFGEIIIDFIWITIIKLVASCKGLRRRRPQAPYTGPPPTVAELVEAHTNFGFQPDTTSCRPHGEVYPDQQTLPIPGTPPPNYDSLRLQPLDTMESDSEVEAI
# T1 sequence (Q9WU39 1-655): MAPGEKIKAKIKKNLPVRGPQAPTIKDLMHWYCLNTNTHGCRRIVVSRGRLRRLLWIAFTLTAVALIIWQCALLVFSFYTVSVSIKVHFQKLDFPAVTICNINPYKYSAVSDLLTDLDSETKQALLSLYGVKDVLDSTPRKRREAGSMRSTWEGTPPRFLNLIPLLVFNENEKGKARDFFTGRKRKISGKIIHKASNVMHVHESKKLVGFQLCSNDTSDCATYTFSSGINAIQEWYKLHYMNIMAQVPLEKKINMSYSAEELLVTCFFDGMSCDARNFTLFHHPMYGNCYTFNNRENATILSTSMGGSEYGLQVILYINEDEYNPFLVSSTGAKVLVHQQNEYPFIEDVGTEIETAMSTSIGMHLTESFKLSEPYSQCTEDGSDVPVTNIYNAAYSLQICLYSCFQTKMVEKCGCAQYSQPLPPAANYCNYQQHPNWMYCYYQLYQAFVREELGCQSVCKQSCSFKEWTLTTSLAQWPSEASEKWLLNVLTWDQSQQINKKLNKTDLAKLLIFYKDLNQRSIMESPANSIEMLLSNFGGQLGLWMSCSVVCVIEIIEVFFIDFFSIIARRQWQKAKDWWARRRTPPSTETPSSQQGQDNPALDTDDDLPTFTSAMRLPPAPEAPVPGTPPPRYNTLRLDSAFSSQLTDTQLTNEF
# Assay: Ussing chamber: short circuit current (I_sc) in mouse kidney M-1 cells, amiloride-sensitive
# Type: cell-based
# Conditions: compound applied to apical solution, 37° C.
structure (smiles),measurement,value
"N/C(=N\C(=O)c1nc(Cl)c(N)nc1N)NC1C[N+]2(CC(=O)Nc3ccccc3)CCC1CC2 (stereo not shown) [Example 3, 3-[N′-(3,5-Diamino-6-chloro-pyrazine-2-carbonyl)-guanidino]-1-phenylcarbamoylmethyl-1-azoniabicyclo[2.2.2]octane chloride]",IC50,26 nM
